Results published in publication PMC12067444, “Synthesis and Pharmacological Characterization of Novel Peripheral Cannabinoid-1 Receptor Blockers Based on a Tricyclic Scaffold” (Journal of Medicinal Chemistry, 2025).

How the values were obtained:
mouse CB1R = target: T1, mouse CB1R (Mus musculus, UniProt P47746); experiment: Radioligand competition displacement binding, [3H]CP-55,940, mouse brain membranes; settings: [3H]CP-55,940 displacement, mouse brain membranes; read-out: CB1R mKi
T1 construct: crude membranes from mouse brain; from tissue; host or cells: mouse brain cortex (without cerebellum) membranes, C57Bl/6Jhsd mice
T1 sequence (P47746 whole entry): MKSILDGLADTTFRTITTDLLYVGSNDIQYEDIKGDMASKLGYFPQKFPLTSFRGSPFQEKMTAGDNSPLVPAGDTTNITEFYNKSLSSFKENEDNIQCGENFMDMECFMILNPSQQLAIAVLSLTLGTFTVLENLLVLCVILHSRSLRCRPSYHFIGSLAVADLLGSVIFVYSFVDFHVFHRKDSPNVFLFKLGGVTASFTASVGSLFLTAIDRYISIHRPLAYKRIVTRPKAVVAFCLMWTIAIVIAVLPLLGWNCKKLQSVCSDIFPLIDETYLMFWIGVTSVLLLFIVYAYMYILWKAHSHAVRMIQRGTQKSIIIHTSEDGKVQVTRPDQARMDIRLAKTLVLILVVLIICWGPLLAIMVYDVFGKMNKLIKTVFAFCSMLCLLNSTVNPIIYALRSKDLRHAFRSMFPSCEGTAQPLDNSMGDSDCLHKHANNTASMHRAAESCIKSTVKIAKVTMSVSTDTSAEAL
Experimental: BNS compounds’ binding to CB1R and CB2R was assessed in competition displacement assays using [^3H]CP-55,940 as the radioligand and crude membranes from mouse brain or human cells overexpressing the CB1R or CB2R. All data were in triplicates with Ki values determined from three independent experiments. See SI for a detailed procedure.
Supplementary Experimental Methods
Brain membrane preparation for CB1R b i nd i ng . The mouse cortex, excluding the cerebellum, was dissected from 6-week-old C57Bl/6Jhsd mice (Harlan, Israel). The tissue was homogenized in 4 mL Buffer 1 (320 mM sucrose, 2 mM EDTA, 5 m M MgCl 2) using a glass-Teflon homogenizer and Hei-T ORQUE 200 (Heidolph; Cat# 17-012- 002- 25 -1) homogenizer set to 132 rpm. After homogenization, the mixture was centrifuged at 1,600 × g for 10 min at four °C, and the resulting supernatant was kept on ice. The pellet (P1) was discarded, and the remaining supernatant was subje cted to additional rounds of resuspension in 4 mL Buffer 1 followed by centrifugations, repeating this process three times. The pellets obtained from these centrifugations were discarded, and the three supernatant fractions were combined and subjected to higher-speed centrifugation at 39,000 × g for 15 min at f ou r °C. […] This resuspended pellet ( P 2 ) was incubated at 37 °C for 10 min and then centrifuged at 23, 000 × g for 10 min at 4°C.
After centrifugation, the pellet (P2) was resuspended in 5 mL Buffer 2 and further incubated at 30 °C for 40 min. Following this incubation, the suspension was centrifuged at 11,000 × g for 15 min at 4 °C. The pellet (P2) was resuspended in 2 mL Buffer 3 containing 50 mM TRIS HCl pH 7.4, 1 mM EDTA, and 3 mM MgCl 2. T h e protein concentration of the final suspension was determined using the BCA assay.
Subsequently, the suspension was diluted to a final concentration of 2 mg/mL in Buffer 3, aliquoted on ice, and stored at - 80 °C for further use.
CB1R and CB2R binding. Binding to the CB1R/CB2R was asse ss ed using competition displacement as says with [ 3H] CP -55,940 as the radioligand. Purified membranes from the mouse brain were utilized for CB1R assessment (as described above). Purified […]
membranes from cells overexpressing human CB2R ( Char les River CAT # A618) w e r e employed for CB2R evaluation.
For mouse CB1R binding assays, the novel compounds were dissolved in dimethyl sulfoxide (DMSO) to reach a final concentration of 10 mM. Each compound was then diluted in Buffer 3 (as described above) supplemented with 0.14% BSA, resulting in concentrations ranging from 10^-4 M to 10^-10 M. Triplicates of 100 µL of each concentration were dispensed into siliconized glass tubes. At the same time, 100 µL of Buffer 3 with 0.14% BSA was dispensed into three tubes as blanks. CB1R b r a i n membranes (20 µg) were added to each tube and diluted with 800 µL Buffer 3 with 0.14% BSA. Subsequently, 5 nM of [ 3H] CP -55,940 (100 µL) was added to each tube.
The tubes were sealed with parafilm and incubated with shaking (120 rpm) in a water bath at 30 °C for 1 hour. Following incubation, 2 mL of cold Buffer 4 (50 mM TRIS HCl pH 7.4, 1 mg/mL BSA) was added to each tube.
To harvest the content of each tube, a Brandel M-24R Vacuum Harvester was employed, with a wet WHATMAN GF/B filter paper (Fired) (one membrane for 12 tubes) placed in the harvester after being washed twice with Buffer 4. The filter membrane in the harvester absorbed the full content of each tube. Then, the filter membrane was wash ed six times with Buffer 4. Each filter -glass membrane tube wa s excised and transferred to a 20 mL glass tube co ntaining a 5 mL ULTIMA GOLD scintillation cocktail. […]

P-gp (MDR1-MDCKII cells) = P-gp (MDR1-MDCKII cells) (Homo sapiens, UniProt P08183); experiment: Bidirectional permeability in MDR1-MDCKII cells with and without GF120918; settings: for Rank Papp: MDR1-MDCKII permeability rank
Sequence of P-gp (MDR1-MDCKII cells) (P08183 whole entry): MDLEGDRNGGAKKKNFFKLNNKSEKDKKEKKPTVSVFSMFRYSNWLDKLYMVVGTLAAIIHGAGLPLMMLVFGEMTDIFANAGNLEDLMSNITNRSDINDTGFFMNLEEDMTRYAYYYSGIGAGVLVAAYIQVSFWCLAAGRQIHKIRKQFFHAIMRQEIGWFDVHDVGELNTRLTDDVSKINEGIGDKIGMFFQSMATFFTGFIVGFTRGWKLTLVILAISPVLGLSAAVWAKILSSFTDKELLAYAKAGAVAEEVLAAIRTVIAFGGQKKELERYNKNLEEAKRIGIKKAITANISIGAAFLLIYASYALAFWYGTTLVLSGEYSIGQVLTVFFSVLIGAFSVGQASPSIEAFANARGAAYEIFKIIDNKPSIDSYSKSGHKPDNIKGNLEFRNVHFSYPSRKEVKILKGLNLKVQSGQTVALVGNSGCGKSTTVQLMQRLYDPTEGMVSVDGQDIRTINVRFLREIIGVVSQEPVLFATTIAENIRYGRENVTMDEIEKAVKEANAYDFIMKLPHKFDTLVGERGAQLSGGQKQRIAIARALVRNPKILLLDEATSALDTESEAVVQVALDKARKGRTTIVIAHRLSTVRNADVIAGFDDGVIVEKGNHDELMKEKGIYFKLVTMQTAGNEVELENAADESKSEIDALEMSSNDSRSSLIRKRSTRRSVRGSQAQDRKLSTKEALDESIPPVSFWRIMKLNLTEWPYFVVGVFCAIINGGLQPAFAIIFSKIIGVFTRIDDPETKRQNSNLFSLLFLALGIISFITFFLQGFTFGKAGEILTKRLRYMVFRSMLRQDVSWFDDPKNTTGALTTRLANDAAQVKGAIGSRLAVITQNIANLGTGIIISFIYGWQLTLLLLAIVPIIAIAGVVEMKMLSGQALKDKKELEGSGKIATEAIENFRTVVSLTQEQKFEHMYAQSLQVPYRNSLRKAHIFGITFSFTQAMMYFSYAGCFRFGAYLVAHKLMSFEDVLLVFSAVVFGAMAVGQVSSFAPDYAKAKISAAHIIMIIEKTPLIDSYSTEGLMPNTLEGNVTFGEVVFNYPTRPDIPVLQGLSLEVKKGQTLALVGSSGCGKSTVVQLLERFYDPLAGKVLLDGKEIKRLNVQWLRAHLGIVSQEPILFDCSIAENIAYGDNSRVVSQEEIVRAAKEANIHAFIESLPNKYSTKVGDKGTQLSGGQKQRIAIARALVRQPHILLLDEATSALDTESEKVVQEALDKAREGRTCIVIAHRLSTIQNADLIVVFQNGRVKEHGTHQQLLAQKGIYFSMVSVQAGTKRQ
Experimental: (§1) MDR1-MDCKII cells were seeded onto […] (PET) in a 96-well insert system. Test and reference compounds were administered to the apical (A-to-B) and basolateral (B-to-A) sides of the cell monolayer. Permeation of the compounds in both directions was assessed, with and without a P-glycoprotein (P-gp) inhibitor (GF120918). […] After a 2.5-h incubation period, each compound’s permeability and efflux ratio were calculated as described in the SI. […]
(§2) Bidirectional permeability assessment in MDR1-MDCK cells. Test and reference compounds were quantified using LC -MS/MS ana lysis based on th e peak ar ea r atio of analyte to internal standard (IS). T he apparent permeability coefficient (Papp) in cm/s was computed using the equation: Pa pp = (dCr/d t ) × V r / ( A × C 0), where dCr/ d t […]
(§3) represents the cumulative concentration of the compound in the receiver chamber over time (µM/s), Vr is the solution volume in the receiver chamber (0.075 mL on the apical side, 0.25 mL on the basolateral side), A is the surface area for transport (0.0804 cm2 f or the monolayer ar ea), and C0 is the initial concentration in the donor chamber ( µM) .
(§4) The efflux ratio was determined using the equation Efflux Ratio = P a pp ( B:
(§5) A ) / Pa pp (A: B) . […]
(§6) Additionally, the percent of lucifer yellow in the basolateral well was calculated using the equation:
(§7) Lucif er yellow = VV bbbbbbbbbbbbbbbbbbbb ×RR FFFF bbbbbbbbbbbbbbbbbbbb ×100 VV bbaaaaaa bbbb ×RRRRRR bbaaaaaa bbbb+VV bbbbbbbbbbbbbbbbbbbb ×RRFFFF bbbbbbbbbbbbbbbbbbbb wher e RFUApical and RFUBasolateral demote the r elative f luor escence unit values of lucif er yellow in the apical and basolateral wells, respectively, and VApical and VBasolateral represent the volumes of apical and basolateral wells (0.075 mL and 0.25 mL, r espectively) . T he % Lucif er Yellow should be less than 2, indicating minimal leakage. […]

P-gp (MDR1) = P-gp (MDR1) (Homo sapiens, UniProt P08183); experiment: as above; settings: dog
Sequence of P-gp (MDR1) (P08183 whole entry): as above
Experimental: as §1, §2, §3, §4, §5, §6, §7

HepG2 cells = experiment: Cell viability assay (CellTiter Glo); format: cell-based; settings: Homo sapiens, 72 h, read-out: cell viability relative IC50
Experimental: Cell viability assay. To assess the cell viability, which indicates the toxicity of the novel compounds, a total of 3,000 HepG2 cells were seeded into a 384-well plate. The compounds were then dispensed onto the cell plate using a Tecan D300e digital dispenser. Following compound addition, 35 μL CellTiter Glo reagent was added to all wells of the assay plate, and the plate was mixed for 30 sec on an or bital shaker to lyse cells. Subsequently, the plate was incubated at room temperature for 10 minutes. The luminescence signal was measured using a 384-well plate reader (EnVision). The obtained data were analyzed using XL-fit software (ID Business Solutions Ltd., Software version: XL fit 5. 5. 0. 5). The percentage of inhibition was calculated using the […]
Inhibition (%) = (1-Sample / ZPE) ×100
Sample represents the test compound's luminesc e nce signal, and ZPE represents the luminescence signal f r om the zer o-percent enzyme control.

CNC(=O)NC1CCCOc2c1nn(-c1ccccc1Cl)c2-c1ccc(Cl)cc1 (centres unmarked) [BNS813, 1-[2-(2-Chlorophenyl)-3-(4-chlorophenyl)-5,6,7,8-tetrahydrooxepino[3,2-c]pyrazol-8-yl]-3-methyl-urea]
Ki (mouse CB1R): 1.13 µM

C[C@H]1O[C@@H](O[C@H]2[C@@H](O)C[C@H](O[C@H]3[C@@H](O)C[C@H](O[C@H]4CC[C@@]5(C)[C@H](CC[C@@H]6[C@@H]5C[C@@H](O)[C@]5(C)[C@@H](C7=CC(=O)OC7)CC[C@]65O)C4)O[C@@H]3C)O[C@@H]2C)C[C@H](O)[C@@H]1O [Digoxin, reference compound]
P-gp substrate (P-gp (MDR1-MDCKII cells); MDR1-MDCKII cells): Ye s | Rank Papp (P-gp (MDR1-MDCKII cells)): Low | Mean Papp B to A (P-gp (MDR1-MDCKII cells); without GF120918): 10.88 10 -6 cm/s

COCCc1ccc(OCC(O)CNC(C)C)cc1 (centres unmarked) [Metoprolol, reference compound]
Rank Papp (P-gp (MDR1-MDCKII cells)): Hi gh | Papp A→B at 2.5 h (P-gp (MDR1); MDCK-MDR1): 28.7 ×10⁻⁶ cm/s | recovery at 2.5 h (P-gp (MDR1); MDCK-MDR1, Mean recovery % A to B, without GF120918): 107%

CN[C@@H]1C[C@H]2O[C@@](C)([C@@H]1OC)n1c3ccccc3c3c4c(c5c6ccccc6n2c5c31)C(=O)NC4 [Staurosporine, reference compound]
IC50 (HepG2 cells): 0.06 µM
